Data published in ChEMBL document CHEMBL1147019, “5-Piperazinyl pyridine carboxamide bradykinin B1 antagonists” (Bioorg Med Chem Lett, 2006).

Key:
B1 bradykinin receptor [1] = molecular target: T1, B1 bradykinin receptor (Homo sapiens, UniProt P46663); test: Binding affinity to human BK1 receptor
T1 sequence (P46663 whole entry): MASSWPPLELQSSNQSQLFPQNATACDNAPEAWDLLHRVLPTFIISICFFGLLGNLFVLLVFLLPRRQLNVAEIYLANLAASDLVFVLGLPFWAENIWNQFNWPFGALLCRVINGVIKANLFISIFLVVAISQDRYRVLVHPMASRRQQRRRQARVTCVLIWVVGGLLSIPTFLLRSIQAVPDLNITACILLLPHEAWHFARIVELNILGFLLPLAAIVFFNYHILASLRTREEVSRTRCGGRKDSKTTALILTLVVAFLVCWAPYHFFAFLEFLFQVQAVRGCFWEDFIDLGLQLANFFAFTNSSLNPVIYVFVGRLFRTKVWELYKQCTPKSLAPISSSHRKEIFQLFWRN

B1 bradykinin receptor [2] = molecular target: T2, B1 bradykinin receptor (Homo sapiens, UniProt P46663); test: Binding affinity to human BK1 receptor E273 mutant
B1 bradykinin receptor [3] = molecular target: T2, B1 bradykinin receptor; test: Binding affinity to human BK1 receptor D291 mutant
B1 bradykinin receptor [4] = molecular target: T2, B1 bradykinin receptor; test: Binding affinity to human BK1 receptor Q295 mutant
B1 bradykinin receptor [5] = molecular target: T2, B1 bradykinin receptor; test: Binding affinity to human BK1 receptor N298 mutant

SMILES	Ki (B1 bradykinin receptor [1])	other results
COC(=O)c1c(F)cccc1-c1ccc(CNc2ccc(CN3CCCCC3)cn2)c(F)c1	9.1 nM	
COC(=O)c1c(F)cccc1-c1ccc(CNc2ccc(C(=O)N3CCN(c4ccccn4)CC3)cn2)c(F)c1	65 nM	Ki (B1 bradykinin receptor [2]): 286 nM; Ki (B1 bradykinin receptor [3]): 85 nM; Ki (B1 bradykinin receptor [4]): 10000 nM; Ki (B1 bradykinin receptor [5]): 726 nM
COC(=O)c1c(F)cccc1-c1ccc(CNc2cc(C(=O)N3CCN(C)CC3)ccn2)c(F)c1	893 nM	
COC(=O)c1c(F)cccc1-c1ccc(CNc2ccc(CN3CCOCC3)cn2)c(F)c1	184 nM	
COC(=O)c1c(F)cccc1-c1ccc(CNc2ccc(C(=O)N3CCN(Cc4ccccc4)CC3)cn2)c(F)c1	26 nM	
COC(=O)c1c(F)cccc1-c1ccc(CNc2ccc(C(=O)N3CCN(S(C)(=O)=O)CC3)cn2)c(F)c1	23 nM	
O=C(C[C@@H]1C(=O)Nc2ccccc2N1S(=O)(=O)c1ccc(Cl)c(Cl)c1)NCCc1ccc(C2=NCCN2)cc1	0.034 nM	Ki (B1 bradykinin receptor [2]): 0.0078 nM; Ki (B1 bradykinin receptor [3]): 0.049 nM; Ki (B1 bradykinin receptor [4]): 0.89 nM; Ki (B1 bradykinin receptor [5]): 0.038 nM
COC(=O)c1c(F)cccc1-c1ccc(CNc2ccc(C(=O)N3CCN(C)CC3)cn2)c(F)c1	4.4 nM	
COC(=O)c1c(F)cccc1-c1ccc(CNc2ccc(C(=O)N3CCN(CC4CC4)CC3)cn2)c(F)c1	0.85 nM	
COC(=O)c1c(F)cccc1-c1ccc(CNc2ccc(C(=O)N3CCN(CCF)CC3)cn2)c(F)c1	5.2 nM	
COC(=O)c1c(F)cccc1-c1ccc(CNc2ccc(C(=O)N3CCN(C4CCCC4)CC3)cn2)c(F)c1	1.5 nM	
COC(=O)c1c(F)cccc1-c1ccc(CNc2ccc(C(=O)N3CCNCC3)cn2)c(F)c1	5.5 nM	
COC(=O)c1c(F)cccc1-c1ccc(CNc2ccc(C(=O)N3CCN(c4ccccc4)CC3)cn2)c(F)c1	62 nM	
C=CCN1CCN(C(=O)c2ccc(NCc3ccc(-c4cccc(F)c4C(=O)OC)cc3F)nc2)CC1	8 nM	
C#CCN1CCN(C(=O)c2ccc(NCc3ccc(-c4cccc(F)c4C(=O)OC)cc3F)nc2)CC1	25 nM	
COC(=O)c1c(F)cccc1-c1ccc(CNc2ccc(C(=O)N3CCN(C(=O)OC)CC3)cn2)c(F)c1	34 nM	
COC(=O)c1c(F)cccc1-c1ccc(CNc2ccc(C(=O)N3CCN(CC4CCC4)CC3)cn2)c(F)c1	3.4 nM	
COC(=O)c1c(F)cccc1-c1ccc(CNc2ccc(C(=O)N3CCN(C(=O)C(C)(C)C)CC3)cn2)c(F)c1	213 nM	
COC(=O)c1c(F)cccc1-c1ccc(CNc2ccc(C(=O)N3CCCCC3)cn2)c(F)c1	70 nM	
COC(=O)c1c(F)cccc1-c1ccc(CNc2nccc(C)c2NC(=O)CC#N)c(F)c1	0.71 nM	
COC(=O)c1c(F)cccc1-c1ccc(CNc2ccc(C(=O)N3CCN(C(C)=O)CC3)cn2)c(F)c1	17 nM	
CCC(C)N1CCN(C(=O)c2ccc(NCc3ccc(-c4cccc(F)c4C(=O)OC)cc3F)nc2)CC1 (stereo not given)	1.5 nM	

SMILES	Ki (B1 bradykinin receptor [1])	other results
CCN1CCN(C(=O)c2ccc(NCc3ccc(-c4cccc(F)c4C(=O)OC)cc3F)nc2)CC1	3.4 nM	
COC(=O)c1c(F)cccc1-c1ccc(CNc2ccc(C(=O)N3CCN(CC(F)F)CC3)cn2)c(F)c1	28 nM	
COC(=O)c1c(F)cccc1-c1ccc(CNc2ccc(C(=O)N3CCN(CC(F)(F)F)CC3)cn2)c(F)c1	52 nM	
COC(=O)c1c(F)cccc1-c1ccc(CNc2ccc(C(=O)N3CCN(C4CCCCC4)CC3)cn2)c(F)c1	2.8 nM	
COC(=O)c1c(F)cccc1-c1ccc(CNc2cc(C(=O)N3CCOCC3)ccn2)c(F)c1	2100 nM	
COC(=O)c1c(Cl)cccc1-c1ccc(CNc2cc(CN3CCOCC3)ccn2)c(F)c1	> 3000 nM	
COC(=O)c1c(F)cccc1-c1ccc(CNc2ccc(C(=O)N3CCN(C4CCC4)CC3)cn2)c(F)c1	2.9 nM	
COC(=O)c1c(F)cccc1-c1ccc(CNc2ccc(C(=O)N3CCN(CC(C)C)CC3)cn2)c(F)c1	1.5 nM	
COC(=O)c1c(F)cccc1-c1ccc(CNc2cc(C(=O)N3CCCCC3)ccn2)c(F)c1	> 3000 nM	
CCCN1CCN(C(=O)c2ccc(NCc3ccc(-c4cccc(F)c4C(=O)OC)cc3F)nc2)CC1	1.7 nM	
C=CCCN1CCN(C(=O)c2ccc(NCc3ccc(-c4cccc(F)c4C(=O)OC)cc3F)nc2)CC1	4 nM	
COC(=O)c1c(Cl)cccc1-c1ccc(CNc2cc(CN3CCCCC3)ccn2)c(F)c1	611 nM	
COC(=O)c1c(F)cccc1-c1ccc(CNc2ccc(C(=O)N3CCN(CC4CCCC4)CC3)cn2)c(F)c1	1.7 nM	
CCCCN1CCN(C(=O)c2ccc(NCc3ccc(-c4cccc(F)c4C(=O)OC)cc3F)nc2)CC1	1.4 nM	
COC(=O)c1c(F)cccc1-c1ccc(CNc2ccc(C(=O)N3CCN(c4ccncc4)CC3)cn2)c(F)c1	0.045 nM	Ki (B1 bradykinin receptor [2]): 0.05 nM; Ki (B1 bradykinin receptor [3]): 0.08 nM; Ki (B1 bradykinin receptor [4]): 5.12 nM; Ki (B1 bradykinin receptor [5]): 0.83 nM
COC(=O)c1c(F)cccc1-c1ccc(CNc2ccc(C(=O)N3CCOCC3)cn2)c(F)c1	80 nM	
COC(=O)c1c(F)cccc1-c1ccc(CNc2ccc(C(=O)N3CCN(c4cccnc4)CC3)cn2)c(F)c1	3.5 nM	
COC(=O)c1c(F)cccc1-c1ccc(CNc2ccc(C(=O)N3CCN(C(C)C)CC3)cn2)c(F)c1	2.2 nM	
COC(=O)c1c(F)cccc1-c1ccc(CNc2ccccn2)c(F)c1	815 nM	
C/C=C/CN1CCN(C(=O)c2ccc(NCc3ccc(-c4cccc(F)c4C(=O)OC)cc3F)nc2)CC1	3.3 nM	
COC(=O)c1c(F)cccc1-c1ccc(CNc2ccc(C(=O)N3CCN(CCC(C)C)CC3)cn2)c(F)c1	9.5 nM	
